# Results reported in ChEMBL document CHEMBL1909294, “Translating clinical findings into knowledge in drug safety evaluation--drug induced liver injury prediction system (DILIps)” (PLoS Comput Biol, 2011).
# Tests used:
# [1] = tested on: Hepatotoxicity;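 for HepSE bilirubinemia: bilirubinemia hepatic side effect score drawn from the DILIps training data, a prediction system for drug-induced liver injury; call rule not given here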;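 for HepSE cholecystitis: Cholecystitis-related hepatic side effect score drawn from the DILIps (drug-induced liver injury prediction) training data set; call rule not given here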;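 for HepSE cholelithiasis: hepatic side effect score for cholelithiasis, drawn from the DILIps training data for predicting drug-induced liver injury; call rule not given here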;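 for HepSE cirrhosis: cirrhosis hepatic side effect score taken from the DILIps (drug-induced liver injury prediction) training set; call rule not given here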;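 for HepSE elevated liver function tests: hepatic side effect score for raised liver function tests, as recorded in the DILIps training set used for predicting drug-induced liver injury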; for HepSE hepatic failure: call rule not given here;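 for HepSE hepatomegaly: hepatic side effect score for hepatomegaly, taken from the training set of the DILIps drug-induced liver injury prediction system; call rule not given here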
# [2] = tested on: Hepatotoxicity; remark: listed apart in the source;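 for HepSE bilirubinemia: bilirubinemia hepatic side effect score drawn from the DILIps training data, a prediction system for drug-induced liver injury; call rule not given here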;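 for HepSE cholecystitis: Cholecystitis-related hepatic side effect score drawn from the DILIps (drug-induced liver injury prediction) training data set; call rule not given here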;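 for HepSE cholelithiasis: hepatic side effect score for cholelithiasis, drawn from the DILIps training data for predicting drug-induced liver injury; call rule not given here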;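 for HepSE cirrhosis: cirrhosis hepatic side effect score taken from the DILIps (drug-induced liver injury prediction) training set; call rule not given here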;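 for HepSE elevated liver function tests: hepatic side effect score for raised liver function tests, as recorded in the DILIps training set used for predicting drug-induced liver injury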; for HepSE hepatic failure: call rule not given here
# [3] = tested on: Hepatotoxicity; remark: listed apart in the source;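 for HepSE bilirubinemia: bilirubinemia hepatic side effect score drawn from the DILIps training data, a prediction system for drug-induced liver injury; call rule not given here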;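 for HepSE cholecystitis: Cholecystitis-related hepatic side effect score drawn from the DILIps (drug-induced liver injury prediction) training data set; call rule not given here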;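 for HepSE cholelithiasis: hepatic side effect score for cholelithiasis, drawn from the DILIps training data for predicting drug-induced liver injury; call rule not given here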;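 for HepSE cirrhosis: cirrhosis hepatic side effect score taken from the DILIps (drug-induced liver injury prediction) training set; call rule not given here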;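 for HepSE elevated liver function tests: hepatic side effect score for raised liver function tests, as recorded in the DILIps training set used for predicting drug-induced liver injury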; for HepSE hepatic failure: call rule not given here
# [4] = tested on: Hepatotoxicity; remark: listed apart in the source;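 for HepSE bilirubinemia: bilirubinemia hepatic side effect score drawn from the DILIps training data, a prediction system for drug-induced liver injury; call rule not given here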;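 for HepSE cholecystitis: Cholecystitis-related hepatic side effect score drawn from the DILIps (drug-induced liver injury prediction) training data set; call rule not given here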;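 for HepSE cholelithiasis: hepatic side effect score for cholelithiasis, drawn from the DILIps training data for predicting drug-induced liver injury; call rule not given here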;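 for HepSE cirrhosis: cirrhosis hepatic side effect score taken from the DILIps (drug-induced liver injury prediction) training set; call rule not given here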;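 for HepSE elevated liver function tests: hepatic side effect score for raised liver function tests, as recorded in the DILIps training set used for predicting drug-induced liver injury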; for HepSE hepatic failure: call rule not given here
# [5] = tested on: Hepatotoxicity; remark: listed apart in the source; for HepSE hepatic failure: call rule not given here
# [6] = tested on: Hepatotoxicity; remark: listed apart in the source; for HepSE hepatic failure: call rule not given here
# [7] = tested on: Hepatotoxicity; remark: listed apart in the source
# [8] = tested on: Hepatotoxicity; remark: listed apart in the source
# [9] = tested on: Hepatotoxicity; remark: listed apart in the source
# [10] = tested on: Hepatotoxicity; remark: listed apart in the source
# [11] = tested on: Hepatotoxicity; remark: listed apart in the source
# [12] = tested on: Hepatotoxicity; remark: listed apart in the source
# [13] = tested on: Hepatotoxicity; remark: listed apart in the source
# [14] = tested on: Hepatotoxicity; remark: listed apart in the source
smiles,measurement,setting,value
Nc1nc2ncc(CNc3ccc(C(=O)N[C@@H](CCC(=O)O)C(=O)O)cc3)nc2c(=O)[nH]1 [FOLIC ACID],HepSE_bilirubinemia,[1],0
same,HepSE_cholecystitis,[2],0
same,HepSE_cholelithiasis,[3],0
same,HepSE_cirrhosis,[4],0
same,HepSE_elevated liver function tests,[5],0
same,HepSE_hepatic failure,[6],0
same,HepSE_hepatic necrosis,[7],0
same,HepSE_hepatitis,[8],0
same,HepSE_hepatomegaly,[9],0
same,HepSE_jaundice,[10],0
same,HepSE_liver disease,[11],0
same,HepSE_liver fatty,[12],0
same,HepSE_liver function tests abnormal,[13],0
same,HepSE_Combined Scores,[14],0
Cc1cn[nH]c1 [FOMEPIZOLE],HepSE_bilirubinemia,[1],0
same,HepSE_cholecystitis,[2],0
same,HepSE_cholelithiasis,[3],0
same,HepSE_cirrhosis,[4],0
same,HepSE_elevated liver function tests,[5],0
same,HepSE_hepatic failure,[6],0
same,HepSE_hepatic necrosis,[7],0
same,HepSE_hepatitis,[8],0
same,HepSE_hepatomegaly,[9],0
same,HepSE_jaundice,[10],0
same,HepSE_liver disease,[11],0
same,HepSE_liver fatty,[12],0
same,HepSE_liver function tests abnormal,[13],0
same,HepSE_Combined Scores,[14],0
CO[C@H]1O[C@H](COS(=O)(=O)[O-])[C@@H](O[C@@H]2O[C@@H](C(=O)[O-])[C@@H](O[C@H]3O[C@H](COS(=O)(=O)[O-])[C@@H](O[C@@H]4O[C@H](C(=O)[O-])[C@@H](O[C@H]5O[C@H](COS(=O)(=O)[O-])[C@@H](O)[C@H](O)[C@H]5NS(=O)(=O)[O-])[C@H](O)[C@H]4O)[C@H](OS(=O)(=O)[O-])[C@H]3NS(=O)(=O)[O-])[C@H](O)[C@H]2OS(=O)(=O)[O-])[C@H](O)[C@H]1NS(=O)(=O)[O-].[Na+].[Na+].[Na+].[Na+].[Na+].[Na+].[Na+].[Na+].[Na+].[Na+] [FONDAPARINUX SODIUM],HepSE_bilirubinemia,[1],0
same,HepSE_cholecystitis,[2],0
same,HepSE_cholelithiasis,[3],0
same,HepSE_cirrhosis,[4],0
same,HepSE_elevated liver function tests,[5],0
same,HepSE_hepatic failure,[6],0
same,HepSE_hepatic necrosis,[7],0
same,HepSE_hepatitis,[8],0
same,HepSE_hepatomegaly,[9],0
same,HepSE_jaundice,[10],0
same,HepSE_liver disease,[11],1
same,HepSE_liver fatty,[12],0
same,HepSE_liver function tests abnormal,[13],0
same,HepSE_Combined Scores,[14],1
CC(C)CN(C[C@@H](OP(=O)(O)O)[C@H](Cc1ccccc1)NC(=O)O[C@H]1CCOC1)S(=O)(=O)c1ccc(N)cc1 [FOSAMPRENAVIR],HepSE_bilirubinemia,[1],0
same,HepSE_cholecystitis,[2],0
same,HepSE_cholelithiasis,[3],0
same,HepSE_cirrhosis,[4],0
same,HepSE_elevated liver function tests,[5],0
same,HepSE_hepatic failure,[6],0
same,HepSE_hepatic necrosis,[7],0
same,HepSE_hepatitis,[8],0
same,HepSE_hepatomegaly,[9],0
same,HepSE_jaundice,[10],0
same,HepSE_liver disease,[11],0
same,HepSE_liver fatty,[12],0
same,HepSE_liver function tests abnormal,[13],0
same,HepSE_Combined Scores,[14],0
O=C(O)P(=O)(O)O [FOSCARNET],HepSE_bilirubinemia,[1],0
same,HepSE_cholecystitis,[2],0
same,HepSE_cholelithiasis,[3],0
same,HepSE_cirrhosis,[4],0
same,HepSE_elevated liver function tests,[5],0
same,HepSE_hepatic failure,[6],0
same,HepSE_hepatic necrosis,[7],0
same,HepSE_hepatitis,[8],0
same,HepSE_hepatomegaly,[9],0
same,HepSE_jaundice,[10],0
same,HepSE_liver disease,[11],0
same,HepSE_liver fatty,[12],0
same,HepSE_liver function tests abnormal,[13],0
same,HepSE_Combined Scores,[14],0
C[C@@H]1O[C@@H]1P(=O)(O)O [FOSFOMYCIN],HepSE_bilirubinemia,[1],0
same,HepSE_cholecystitis,[2],0
same,HepSE_cholelithiasis,[3],0
same,HepSE_cirrhosis,[4],0
same,HepSE_elevated liver function tests,[5],0
same,HepSE_hepatic failure,[6],0
same,HepSE_hepatic necrosis,[7],1
same,HepSE_hepatitis,[8],0
same,HepSE_hepatomegaly,[9],0
same,HepSE_jaundice,[10],1
same,HepSE_liver disease,[11],0
same,HepSE_liver fatty,[12],0
same,HepSE_liver function tests abnormal,[13],0
same,HepSE_Combined Scores,[14],2
CCC(=O)O[C@@H](O[P@](=O)(CCCCc1ccccc1)CC(=O)N1C[C@H](C2CCCCC2)C[C@H]1C(=O)O)C(C)C [FOSINOPRIL],HepSE_bilirubinemia,[1],0
same,HepSE_cholecystitis,[2],0
same,HepSE_cholelithiasis,[3],0
same,HepSE_cirrhosis,[4],0
same,HepSE_elevated liver function tests,[5],0
same,HepSE_hepatic failure,[6],1
same,HepSE_hepatic necrosis,[7],0
same,HepSE_hepatitis,[8],1
same,HepSE_hepatomegaly,[9],1
same,HepSE_jaundice,[10],1
same,HepSE_liver disease,[11],0
same,HepSE_liver fatty,[12],0
same,HepSE_liver function tests abnormal,[13],0
same,HepSE_Combined Scores,[14],4
O=C1NC(c2ccccc2)(c2ccccc2)C(=O)N1COP(=O)(O)O [FOSPHENYTOIN],HepSE_bilirubinemia,[1],0
same,HepSE_cholecystitis,[2],0
same,HepSE_cholelithiasis,[3],0
same,HepSE_cirrhosis,[4],0
same,HepSE_elevated liver function tests,[5],0
same,HepSE_hepatic failure,[6],0
same,HepSE_hepatic necrosis,[7],0
same,HepSE_hepatitis,[8],0
same,HepSE_hepatomegaly,[9],0
same,HepSE_jaundice,[10],0
same,HepSE_liver disease,[11],0
same,HepSE_liver fatty,[12],0
same,HepSE_liver function tests abnormal,[13],1
same,HepSE_Combined Scores,[14],1
NC[C@@H]1O[C@H](O[C@H]2[C@@H](O)[C@H](O[C@@H]3[C@@H](O)[C@H](N)C[C@H](N)[C@H]3O[C@H]3O[C@H](CN)[C@@H](O)[C@H](O)[C@H]3N)O[C@@H]2CO)[C@H](N)[C@@H](O)[C@@H]1O [FRAMYCETIN],HepSE_bilirubinemia,[1]; Liver,0
same,HepSE_cholecystitis,[2]; Liver,0
same,HepSE_cholelithiasis,[3]; Liver,0
same,HepSE_cirrhosis,[4]; Liver,0
same,HepSE_elevated liver function tests,[5]; Liver,0
same,HepSE_hepatic failure,[6]; Liver,0
same,HepSE_hepatic necrosis,[7]; Liver,0
same,HepSE_hepatitis,[8]; Liver,0
same,HepSE_hepatomegaly,[9]; Liver,0
same,HepSE_jaundice,[10]; Liver,0
same,HepSE_liver disease,[11]; Liver,0
same,HepSE_liver fatty,[12]; Liver,0
same,HepSE_liver function tests abnormal,[13]; Liver,0
same,HepSE_Combined Scores,[14]; Liver,0
CN[C@@H]1CCc2[nH]c3ccc(C(N)=O)cc3c2C1 [FROVATRIPTAN],HepSE_bilirubinemia,[1],0
same,HepSE_cholecystitis,[2],0
same,HepSE_cholelithiasis,[3],0
same,HepSE_cirrhosis,[4],0
same,HepSE_elevated liver function tests,[5],0
same,HepSE_hepatic failure,[6],0
same,HepSE_hepatic necrosis,[7],0
same,HepSE_hepatitis,[8],0
same,HepSE_hepatomegaly,[9],0
same,HepSE_jaundice,[10],0
same,HepSE_liver disease,[11],0
same,HepSE_liver fatty,[12],0
same,HepSE_liver function tests abnormal,[13],0
same,HepSE_Combined Scores,[14],0
C[C@]12CC[C@@H]3c4ccc(O)cc4C[C@@H](CCCCCCCCC[S+]([O-])CCCC(F)(F)C(F)(F)F)[C@H]3[C@@H]1CC[C@@H]2O (stereo partly drawn) [FULVESTRANT],HepSE_bilirubinemia,[1],0
same,HepSE_cholecystitis,[2],0
same,HepSE_cholelithiasis,[3],0
same,HepSE_cirrhosis,[4],0
same,HepSE_elevated liver function tests,[5],0
same,HepSE_hepatic failure,[6],0
same,HepSE_hepatic necrosis,[7],0
same,HepSE_hepatitis,[8],0
same,HepSE_hepatomegaly,[9],0
same,HepSE_jaundice,[10],0
same,HepSE_liver disease,[11],0
same,HepSE_liver fatty,[12],0
same,HepSE_liver function tests abnormal,[13],0
same,HepSE_Combined Scores,[14],0
NCC1(CC(=O)O)CCCCC1 [GABAPENTIN],HepSE_bilirubinemia,[1],0
same,HepSE_cholecystitis,[2],1
same,HepSE_cholelithiasis,[3],1
same,HepSE_cirrhosis,[4],0
same,HepSE_elevated liver function tests,[5],1
same,HepSE_hepatic failure,[6],1
same,HepSE_hepatic necrosis,[7],0
same,HepSE_hepatitis,[8],1
same,HepSE_hepatomegaly,[9],1
same,HepSE_jaundice,[10],1
same,HepSE_liver disease,[11],0
same,HepSE_liver fatty,[12],0
same,HepSE_liver function tests abnormal,[13],1
same,HepSE_Combined Scores,[14],8
